Reference: paper PMC4862498, “PI4 Kinase Is a Prophylactic but Not Radical Curative Target in Plasmodium vivax-Type Malaria Parasites” (Antimicrobial Agents and Chemotherapy, 2016)

Parameters: species or system CD-1 mice
Conditions: mouse, in vivo
Experimental: Details of in vivo PK studies of KDU691 and LMV599 in CD-1 mice and monkeys can be found in the supplemental material.
Clinical chemistry and hematology
For the clinical analysis serum from 1 mL of clotted blood was analysed using the Cobas Integra 400 plus fully automated chemistry analyser. The following clinical parameters were determined: Alkaline phosphatase; Alanine Aminotransferase; Albumin: Aspartate aminotransfeasr; Bilirubin; Calcium; Cholesterol; Creatine kinase; Creatinine; C-reactive protein: Iron; Phosphate; Gamma-glutamyl transpeptidase; Glucose; Hemoglobin; Potassium; Lactate dehydrogenase; Sodium; Total protein; Urea Haematological parameters were determined from 1 mL EDTA-blood with a Sysmex XT-2000iV automated system. The following hematological parameters were determined: Basophilic granulocytes; Eosinophilic granulocytes; Erythrocytes; Hematocrit; Leucocytes; Leucocyte differentiation; Lymphocytes; Mean corpusculair hemoglobin; Mean corpusculair hemoglobin concentration; Mean corpusculair volume; Neutrophilic granulocytes; Red cell distribution width; Thrombocytes […]
For LC/MS/MS analysis, 50 µL of plasma samples were precipitated using 180 µL of acetonitrile:methanol:acetic acid (90:9.8:0.2) containing either related compound or warfarin as internal standard. After vortexing and centrifuging the mixture, the supernatant was removed and 5 µL of sample analyzed. […] In addition, quality control samples with three different concentrations were prepared in respective blank matrix and analyzed together with the unknown samples for validation purposes. Analyte quantitation was performed by LC/MS/MS using optimized conditions for each compound. […]
B), 3.92 – 4.0 min (85 – 35 % B) and 4.0 – 4.75 min (35 % B), with a flow rate of 1.0 mL/min, and a run time of 4.75 min. […] The most intense MRM transition (420.2/269) was used for quantitation using electrospray ionization in the positive mode. […]

Q: With `CNC(=O)c1ccc(-c2cnc3cnc(C(=O)N(C)c4ccc(Cl)cc4)cn23)cc1` [KDU691] as the compound, how does the “compound partitioning in the liver, Cmax over plasma” value read?
A: 1.7 ×

Q: What about the “compound partitioning in the liver, exposure over plasma” value of the same compound?
A: 3.1 ×

Q: And the “F (oral bioavailability)” value (po, 25 mg/kg)?
A: 60%
